Compound	melting point
COc1cc2c(cc1-c1ccccc1F)NC(=O)CC(c1ccnc(C#N)c1)=N2	240 to 242 °C
COc1ccc(C(OC2CCN(CC(=O)O)CC2)c2ccccc2)cc1 (configuration not stated)	84 to 85 °C
NS(=O)(=O)N1CCC(CCNC(=O)c2cc(Cl)ccn2)CC1	186 to 187 °C
CC(C)N(CCC(c1cccs1)c1ccc(O)cc1O)C(C)C (configuration not stated)	102 to 109 °C
COc1cc(C=O)ccc1OCCCC(=O)O	143 to 148 °C
O=C(NC(=O)N(SN1CCOCC1)c1ccc(Oc2ccc(C(F)(F)F)cc2Cl)cc1F)c1c(F)cccc1F	77 to 80 °C
CCCn1cc2c(C3C(=O)Nc4ccc(C)cc43)nc(Cl)nc2n1 (configuration not stated)	275 to 280 °C
Cn1nc(C(C)(C)C)cc1O	150 °C
CCCCCCN(C)c1ccc(C=C2SC(=S)N(CC(=O)NS(=O)(=O)C(F)(F)F)C2=O)cc1	94 to 97 °C
CCC(CC)n1cnc2c1c(=O)n(C)c(=O)n2-c1ccc(Cl)cc1Cl	158 to 159 °C
CCCCCCCCCCNC(=O)Nc1ccc(N(C)C)cc1C(=O)NCC1CCN(C(c2ccccc2)c2ccccc2)CC1	145 to 147 °C
CCC(CC)c1nc(CN(C)C(=O)N[C@H](C(=O)N[C@@H](Cc2ccccc2)C[C@H](O)[C@H](Cc2ccccc2)NC(=O)OCc2cncs2)C(C)C)cs1	64 to 66 °C
Cc1ccc2c(c1)C1(COc3cc4c(cc31)OCO4)C(=O)N2Cc1ccc(C(F)(F)F)o1 (configuration not stated)	96 to 98 °C
COc1ccc(CCNCC(O)c2ccccc2)cc1Cl (configuration not stated)	95 to 96 °C
COCCOCc1c(CO)sc2c(=O)c(C(=O)NCc3ccc(Cl)cc3)cn(C)c12	167 to 168 °C
CCOC(=O)c1cn(-c2ccc(F)cc2F)c2c(F)c(F)c(F)c(F)c2c1=O	160 to 162 °C
Cc1ccc([N+](=O)[O-])cc1CNC(=O)c1ccccc1	134 to 137 °C
CCNc1c(C(=O)OCC)c(C)nc2c1nnn2CC	60 to 61 °C
Cn1cnc(COc2nc3c(-c4ccccc4F)nncn3c2-c2ccccc2)n1	186 °C

Compound	melting point
CCCCn1cc(C2CCN(CCOc3ccccc3C(=O)O)CC2)c2ccncc21	158 to 159 °C
O=C(c1ccc([N+](=O)[O-])o1)N1CCN(CC(O)COc2cccc3[nH]c4ccccc4c23)CC1 (configuration not stated)	178 to 181 °C
O=C1CCC(c2ccc(Br)cc2)N1 (configuration not stated)	142 °C
CCOC(=O)CCc1cn(Cc2ccc(OCc3cn4c(-c5ccccc5)cccc4n3)cc2)nc1OCC	104 to 105 °C
CNc1c(F)c(C)c2c(=O)c(C(=O)O)cn(-c3cc(N)c(F)cc3F)c2c1C	247 to 253 °C
CCCc1c(OCCC2Cc3cc(C(=O)CCC(=O)O)ccc3O2)ccc(C(C)=O)c1O (configuration not stated)	156 to 158 °C
OC1CSC(Oc2ccncc2)C(O)C1O (configuration not stated)	165 to 168 °C
O=C1NCCC(C(=O)c2ccc(Cc3ccc(F)cc3)o2)=C1O	166 to 168 °C
CC1=C(C(=O)O)N2C(=O)C(NC(=O)Cc3ccc(CN=[N+]=[N-])cc3)C2SC1 (configuration not stated)	154 to 155 °C
COc1ccc2nccc(CCC[C@@H]3CCN(CCCc4cccc(F)c4)C[C@@H]3C(=O)O)c2c1	206 °C
COc1cc(N)c(Cl)cc1C(=O)NCC1CCN(CCCCCC(=O)c2ccc(C)cc2)CC1	130 to 131 °C
Cc1cc(CC(=O)OC(C)(C)C)ccc1NC(=O)Nc1ccccc1C(F)(F)F	178 to 180 °C
Cc1c(C)c2c(c(C)c1N)CC(C)(CSCCO)O2 (configuration not stated)	108 to 109 °C
CCC(C)(Oc1ccc(-c2ccccc2)cc1OC)C(=O)O (configuration not stated)	50 to 55 °C
CC(=O)N1CC=C(c2cc3c(cc2F)c(=O)c2c(=O)[nH]sc2n3C2CC2)CC1	243 to 244 °C
Cc1ccc([C@H]2O[C@@H]2C(N)=O)cc1	183 to 185 °C
N#CC1=C(n2cccc2)Oc2c(ccc3ccccc23)C1c1cccc([N+](=O)[O-])c1 (configuration not stated)	184 to 185 °C
Cn1nc(Cl)c(C(=O)OC2COC2)c1S(N)(=O)=O	145 to 147 °C
